Laboratory results published in patent publication US4436751A, “Nitrobenzyl monates antibacterial compounds” (Beecham Group Limited, priority 1980, dated 1984).
Values after ≈ are worked out from the molar mass of the structure shown. Like-named read-outs stand apart in the source and are kept apart here.

Columns and labels:
Assay type in all cases: cell-based
M. suipneumoniae Str. 11 = test: Anti-mycoplasmal MIC in vitro, Friis broth agarose (Table 1); conditions: Mesomycoplasma hyopneumoniae
M. suipneumoniae TAM 6N = test: as above; conditions: Mesomycoplasma hyopneumoniae, TAM6N, 144 h
M. bovis RCTC 10131 = test: microbe, parasite or virus in culture; conditions: RCTC10131, 144 h
[1] = test system: Erysipelothrix rhusiopathiae NCTC 8163; test: Veterinary bacteria MIC, Diagnostic Sensitivity Test Agar (Table 2)
Protocol: (§1) The values were determined using a two fold serial dilutions in Diagnostic Sensitivity Test Agar with an inoculum of 10^4 organisms and incubation for 18 hours at 37° C.

Staph. aureus B4 = test: as above; conditions: Staphylococcus aureus; Staph. aureus B4; DST Agar, 10^4 organisms, 18 hours 37° C.; read-out: MIC
Protocol: as §1

E. Coli NCTC 10418 [2] = test: as above; conditions: Escherichia coli
Protocol: as §1

[3] = test system: M. suipneumoniae PW/C/210; test: Anti-mycoplasmal MIC in vitro, Friis broth agarose (Table 1); conditions: Mesomycoplasma hyopneumoniae, 144 h
[4] = test system: M. suipneumoniae ATCC 25095; test: as above; conditions: Mesomycoplasma hyopneumoniae, ATCC25095, 144 h
[5] = test system: Strep. pyogenes R80/421-A; test: Human bacteria MIC, nutrient agar with chocolated horse blood (Table 3); conditions: Streptococcus pyogenes
Protocol: (§2) The values were determined by serial dilutions in nutrient agar with 5% chocolated horse blood after incubations for 18 hours at 37° C.

Staph. aureus Oxford = test: as above; conditions: Staphylococcus aureus
Protocol: as §2

[6] = test system: Corynebacterium xerosis 9755; test: as above
Protocol: as §2

P. mirabilis 889 = test: as above
Protocol: as §2

Bacillus subtilis 6633 = test: as above
Protocol: as §2

[7] = test system: Ps. aeruginosa NCTC 10662; test: as above; conditions: Pseudomonas aeruginosa
Protocol: as §2

[8] = test system: Haemophilus influenzae Q1; test: as above
Protocol: as §2

Sarcina lutea 8340 = test: as above
Protocol: as §2

[9] = test system: Pasteurella multocida 1633; test: as above; conditions: Pasteurella multocida 1633; nutrient agar 5% chocolated horse blood, 18 hours 37° C.; read-out: MIC
Protocol: as §2

Staph. aureus W2827 = test: as above; conditions: Staphylococcus aureus
Protocol: as §2

E. Coli NCTC 10418 [10] = test: as above; conditions: Escherichia coli
Protocol: as §2

Strep. faecalis 1 = test: as above
Protocol: as §2

K. aerogenes A = test: as above; conditions: Klebsiella aerogenes
Protocol: as §2

Staph. aureus Russell = test: as above; conditions: Staphylococcus aureus
Protocol: as §2

M. suipneumoniae JF 435 = test: Anti-mycoplasmal MIC in vitro, Friis broth agarose (Table 1); conditions: Mesomycoplasma hyopneumoniae, JF435, 144 h
M. dispar RCTC 10125 = test: as above; conditions: 144 h
[11] = test system: M. bovigenitalium ATOC 14173; test: as above; conditions: 144 h
[12] = test system: M. hyosynoviae ATOC 25591; test: as above; conditions: 144 h
M. suipneumoniae NB12 = test: as above; conditions: Mesomycoplasma hyopneumoniae
M. suipneumoniae OCD 1 = test: as above; conditions: Mesomycoplasma hyopneumoniae, OCD1, 144 h
[13] = Strep. pyogenes R80/421-A, nutrient agar 5% chocolated horse blood, 18 hours 37° C., read-out: MIC
[14] = Corynebacterium xerosis, 9755, 18 h
[15] = Haemophilus influenzae Q1, nutrient agar 5% chocolated horse blood, 18 hours 37° C., read-out: MIC
[16] = Enterococcus faecalis, Strep. faecalis 1, nutrient agar 5% chocolated horse blood, 18 hours 37° C., read-out: MIC
[17] = NCTC8163, Erysipelothrix rhusiopathiae NCTC 8163, DST Agar, 10^4 organisms, 18 hours 37° C., read-out: MIC
[18] = Staph. aureus Oxford, nutrient agar 5% chocolated horse blood, 18 hours 37° C., read-out: MIC
[19] = Staph. aureus W2827, nutrient agar 5% chocolated horse blood, 18 hours 37° C., read-out: MIC
[20] = Staph. aureus Russell, nutrient agar 5% chocolated horse blood, 18 hours 37° C., read-out: MIC
[21] = NCTC10418, E. Coli NCTC 10418, DST Agar, 10^4 organisms, 18 hours 37° C., read-out: MIC
[22] = Corynebacterium xerosis 9755, nutrient agar 5% chocolated horse blood, 18 hours 37° C., read-out: MIC
[23] = Proteus mirabilis, P. mirabilis 889, nutrient agar 5% chocolated horse blood, 18 hours 37° C., read-out: MIC
[24] = Bacillus subtilis 6633, nutrient agar 5% chocolated horse blood, 18 hours 37° C., read-out: MIC
[25] = NCTC10662, Ps. aeruginosa NCTC 10662, nutrient agar 5% chocolated horse blood, 18 hours 37° C., read-out: MIC
[26] = Micrococcus luteus, Sarcina lutea 8340, nutrient agar 5% chocolated horse blood, 18 hours 37° C., read-out: MIC
[27] = NCTC10418, E. coli NCTC 10418, nutrient agar 5% chocolated horse blood, 18 hours 37° C., read-out: MIC
[28] = K. aerogenes A, nutrient agar 5% chocolated horse blood, 18 hours 37° C., read-out: MIC

Structure (SMILES)	MIC (M. suipneumoniae Str. 11; STR.11, 144 h)	MIC (M. suipneumoniae TAM 6N)	MIC (M. bovis RCTC 10131)	MIC (Staph. aureus B4)	MIC (E. Coli NCTC 10418 [2]; NCTC10418, 18 h)	MIC [3]	MIC [4]	MIC [5, 13]	MIC [8, 15]	MIC [9]	MIC (Strep. faecalis 1; [16])	MIC (M. suipneumoniae JF 435)	MIC (M. dispar RCTC 10125)	MIC [11]	MIC [12]	MIC (M. suipneumoniae NB12; NB12, 144 h)	MIC (M. suipneumoniae OCD 1)	MIC [1, 17]	MIC (Staph. aureus Oxford; [18])	MIC (Staph. aureus Russell; [20])	also measured
C/C(=C\C(=O)OCc1ccc([N+](=O)[O-])cc1Cl)CC1OCC(CC2OC2C(C)C(C)O)C(O)C1O (stereo not shown) [Example 11, 2-chloro-4-nitrobenzyl monate A]	1 µg/mL (≈ 1.95 µM)	2.5 µg/mL (≈ 4.86 µM)	0.025 µg/mL (≈ 0.0486 µM)	0.156 µg/mL (≈ 0.304 µM)	80 µg/mL (≈ 156 µM)	1 µg/mL (≈ 1.95 µM)	1 µg/mL (≈ 1.95 µM)	1 µg/mL (≈ 1.95 µM)	2.5 µg/mL (≈ 4.86 µM)	5 µg/mL (≈ 9.73 µM)	50 µg/mL (≈ 97.3 µM)	2.5 µg/mL (≈ 4.86 µM)	0.5 µg/mL (≈ 0.973 µM)	0.05 µg/mL (≈ 0.0973 µM)	0.1 µg/mL (≈ 0.195 µM)	1 µg/mL (≈ 1.95 µM)	2.5 µg/mL (≈ 4.86 µM)				MIC ([1]; Erysipelothrix rhusiopathiae, NCTC8163, 18 h): 5 µg/mL (≈ 9.73 µM); MIC (Staph. aureus Oxford; 18 h): 1 µg/mL (≈ 1.95 µM); MIC [6, 14]: > 100 µg/mL; MIC (P. mirabilis 889; Proteus mirabilis, 889, 18 h): > 100 µg/mL; MIC (Bacillus subtilis 6633; Bacillus subtilis, 6633, 18 h): 0.5 µg/mL (≈ 0.973 µM); MIC ([7]; NCTC10662, 18 h): > 100 µg/mL; MIC (Sarcina lutea 8340; Micrococcus luteus, 8340, 18 h): > 100 µg/mL; MIC (Staph. aureus W2827; W2827, 18 h): 1 µg/mL (≈ 1.95 µM); MIC (E. Coli NCTC 10418 [10]; NCTC10418, 18 h): > 100 µg/mL; MIC (K. aerogenes A; 18 h): > 100 µg/mL; MIC (Staph. aureus Russell; 18 h): 1 µg/mL (≈ 1.95 µM)
C/C(=C\C(=O)OCc1ccccc1[N+](=O)[O-])CC1OCC(CC2OC2C(C)C(C)O)C(O)C1O (stereo not shown) [C, O--nitrobenzyl monate A, reference compound]	0.25 µg/mL (≈ 0.521 µM)	0.5 µg/mL (≈ 1.04 µM)	≤ 0.01 µg/mL	0.625 µg/mL (≈ 1.3 µM)	> 80 µg/mL	0.25 µg/mL (≈ 0.521 µM)	0.25 µg/mL (≈ 0.521 µM)			2.5 µg/mL (≈ 5.21 µM)		0.5 µg/mL (≈ 1.04 µM)	0.1 µg/mL (≈ 0.209 µM)	0.025 µg/mL (≈ 0.0521 µM)	0.25 µg/mL (≈ 0.521 µM)	0.5 µg/mL (≈ 1.04 µM)	0.5 µg/mL (≈ 1.04 µM)	80 µg/mL (≈ 167 µM)	2.5 µg/mL (≈ 5.21 µM)	2.5 µg/mL (≈ 5.21 µM)	MIC ([5]; R80/421A, 18 h): 0.5 µg/mL (≈ 1.04 µM); MIC [6, 14]: > 100 µg/mL; MIC (P. mirabilis 889; Proteus mirabilis, 889, 18 h): > 100 µg/mL; MIC (Bacillus subtilis 6633; Bacillus subtilis, 6633, 18 h): 2.5 µg/mL (≈ 5.21 µM); MIC ([7]; NCTC10662, 18 h): > 100 µg/mL; MIC ([8]; Haemophilus influenzae, Q1, 18 h): 0.5 µg/mL (≈ 1.04 µM); MIC (Sarcina lutea 8340; Micrococcus luteus, 8340, 18 h): > 100 µg/mL; MIC (Staph. aureus W2827; [19]): 5 µg/mL (≈ 10.4 µM); MIC (E. Coli NCTC 10418 [10]; NCTC10418, 18 h): > 100 µg/mL; MIC (Strep. faecalis 1; Enterococcus faecalis, 1, 18 h): > 100 µg/mL; MIC (K. aerogenes A; 18 h): > 100 µg/mL
C/C(=C\C(=O)OCc1cccc([N+](=O)[O-])c1)CC1OCC(CC2OC2C(C)C(C)O)C(O)C1O (stereo not shown) [Example 2, m-nitrobenzyl monate A]			≤ 0.01 µg/mL	0.625 µg/mL (≈ 1.3 µM)			0.025 µg/mL (≈ 0.0521 µM)	2.5 µg/mL (≈ 5.21 µM)	2.5 µg/mL (≈ 5.21 µM)	10 µg/mL (≈ 20.9 µM)	> 100 µg/mL							20 µg/mL (≈ 41.7 µM)	10 µg/mL (≈ 20.9 µM)	10 µg/mL (≈ 20.9 µM)	MIC (M. suipneumoniae Str. 11; 144 h, M. suipneumoniae Str. 11, in vitro, 6 days 37° C., read-out: MIC): 0.025 µg/mL (≈ 0.0521 µM); MIC (M. suipneumoniae TAM 6N; M. suipneumoniae TAM 6N, in vitro, 6 days 37° C., read-out: MIC): 0.025 µg/mL (≈ 0.0521 µM); MIC (E. Coli NCTC 10418 [2]; [21]): 40 µg/mL (≈ 83.4 µM); MIC ([3]; M. suipneumoniae PW/C/210, in vitro, 6 days 37° C., read-out: MIC): ≤ 0.01 µg/mL; MIC [6, 22]: > 100 µg/mL; MIC (P. mirabilis 889; [23]): > 100 µg/mL; MIC (Bacillus subtilis 6633; [24]): 5 µg/mL (≈ 10.4 µM); MIC [7, 25]: > 100 µg/mL; MIC (Sarcina lutea 8340; [26]): > 100 µg/mL; MIC (Staph. aureus W2827; [19]): 25 µg/mL (≈ 52.1 µM); MIC (E. Coli NCTC 10418 [10]; [27]): > 100 µg/mL; MIC (K. aerogenes A; [28]): > 100 µg/mL; MIC (M. suipneumoniae JF 435; M. suipneumoniae JF 435, in vitro, 6 days 37° C., read-out: MIC): 0.025 µg/mL (≈ 0.0521 µM); MIC (M. dispar RCTC 10125; M. dispar RCTC 10125, in vitro, 6 days 37° C., read-out: MIC): 0.01 µg/mL (≈ 0.0209 µM); MIC ([11]; M. bovigenitalium ATOC 14173, in vitro, 6 days 37° C., read-out: MIC): ≤ 0.01 µg/mL; MIC ([12]; M. hyosynoviae ATOC 25591, in vitro, 6 days 37° C., read-out: MIC): 0.025 µg/mL (≈ 0.0521 µM); MIC (M. suipneumoniae NB12; 144 h, M. suipneumoniae NB12, in vitro, 6 days 37° C., read-out: MIC): 0.025 µg/mL (≈ 0.0521 µM); MIC (M. suipneumoniae OCD 1; M. suipneumoniae OCD 1, in vitro, 6 days 37° C., read-out: MIC): 0.025 µg/mL (≈ 0.0521 µM)
C/C(=C\C(=O)OCc1cccc([N+](=O)[O-])c1)CC1OCC(C/C=C/C(C)C(C)O)C(O)C1O (stereo not shown) [Example 5, m-nitrobenzyl monate C]	0.1 µg/mL (≈ 0.216 µM)	0.25 µg/mL (≈ 0.539 µM)	0.1 µg/mL (≈ 0.216 µM)	2.5 µg/mL (≈ 5.39 µM)		0.1 µg/mL (≈ 0.216 µM)	0.25 µg/mL (≈ 0.539 µM)	1 µg/mL (≈ 2.16 µM)	1 µg/mL (≈ 2.16 µM)	25 µg/mL (≈ 53.9 µM)	> 100 µg/mL	0.25 µg/mL (≈ 0.539 µM)	0.1 µg/mL (≈ 0.216 µM)	0.1 µg/mL (≈ 0.216 µM)	0.25 µg/mL (≈ 0.539 µM)	0.25 µg/mL (≈ 0.539 µM)	0.25 µg/mL (≈ 0.539 µM)	> 80 µg/mL	2.5 µg/mL (≈ 5.39 µM)	2.5 µg/mL (≈ 5.39 µM)	MIC (E. Coli NCTC 10418 [2]; [21]): > 80 µg/mL; MIC [6, 22]: > 100 µg/mL; MIC (P. mirabilis 889; [23]): > 100 µg/mL; MIC (Bacillus subtilis 6633; [24]): 1 µg/mL (≈ 2.16 µM); MIC [7, 25]: > 100 µg/mL; MIC (Sarcina lutea 8340; [26]): > 100 µg/mL; MIC (Staph. aureus W2827; W2827, 18 h): 5 µg/mL (≈ 10.8 µM); MIC (E. Coli NCTC 10418 [10]; [27]): > 100 µg/mL; MIC (K. aerogenes A; [28]): > 100 µg/mL
